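Step 1: Grow cells in 96-well plates. Step 2: Expose to compound for 48 hours at 5 concentrations. Step 3: Interpolate endpoints linearly; if unreached, use highest concentration. The concentration for full growth arrest is given as TGI.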
Assays:
Assay in all cases: NCI-60 cell line screen, 48 h
786-0 renal = test system: 786-0 renal
A498 renal = test system: A498 renal
A549 NSCLC = test system: A549 NSCLC
ACHN renal = test system: ACHN renal
BT-549 breast = test system: BT-549 breast
CAKI-1 renal = test system: CAKI-1 renal
COLO 205 colon = test system: COLO 205 colon
DU-145 prostate = test system: DU-145 prostate
EKVX NSCLC = test system: EKVX NSCLC
HCC-2998 colon = test system: HCC-2998 colon
HCT-116 colon = test system: HCT-116 colon
HCT-15 colon = test system: HCT-15 colon
HL-60(TB) leukemia = test system: HL-60(TB) leukemia
HOP-62 NSCLC = test system: HOP-62 NSCLC
HOP-92 NSCLC = test system: HOP-92 NSCLC
HS 578T breast = test system: HS 578T breast
HT29 colon = test system: HT29 colon
IGROV1 ovarian = test system: IGROV1 ovarian
K-562 leukemia = test system: K-562 leukemia
KM12 colon = test system: KM12 colon
LOX IMVI melanoma = test system: LOX IMVI melanoma
M14 melanoma = test system: M14 melanoma
MALME-3M melanoma = test system: MALME-3M melanoma
MCF7 breast = test system: MCF7 breast
MDA-MB-231 breast = test system: MDA-MB-231 breast
MDA-MB-435 = test system: MDA-MB-435
MDA-N = test system: MDA-N
MOLT-4 leukemia = test system: MOLT-4 leukemia
NCI-H226 lung = test system: NCI-H226 lung
NCI-H23 lung = test system: NCI-H23 lung
NCI-H460 lung = test system: NCI-H460 lung
NCI-H522 lung = test system: NCI-H522 lung
NCI/ADR-RES ovarian = test system: NCI/ADR-RES ovarian
OVCAR-3 ovarian = test system: OVCAR-3 ovarian
OVCAR-4 ovarian = test system: OVCAR-4 ovarian
OVCAR-5 ovarian = test system: OVCAR-5 ovarian
OVCAR-8 ovarian = test system: OVCAR-8 ovarian
PC-3 prostate = test system: PC-3 prostate
RPMI-8226 leukemia = test system: RPMI-8226 leukemia
RXF 393 renal = test system: RXF 393 renal
SF-268 CNS = test system: SF-268 CNS
SF-295 CNS = test system: SF-295 CNS
SK-MEL-28 melanoma = test system: SK-MEL-28 melanoma
SK-MEL-5 melanoma = test system: SK-MEL-5 melanoma
SK-OV-3 ovarian = test system: SK-OV-3 ovarian
SN12C renal = test system: SN12C renal
SNB-19 CNS = test system: SNB-19 CNS
SNB-75 CNS = test system: SNB-75 CNS
SW-620 colon = test system: SW-620 colon
T-47D breast = test system: T-47D breast
TK-10 renal = test system: TK-10 renal
U251 CNS = test system: U251 CNS
UACC-257 melanoma = test system: UACC-257 melanoma
UACC-62 melanoma = test system: UACC-62 melanoma
UO-31 renal = test system: UO-31 renal
CCRF-CEM leukemia = test system: CCRF-CEM leukemia
SF-539 CNS = test system: SF-539 CNS
SK-MEL-2 melanoma = test system: SK-MEL-2 melanoma
SR leukemia = test system: SR leukemia

SMILES: CC(N)C(C)Cc1ccccc1 (configuration not stated)
- TGI (786-0 renal): > 100 µM
- TGI (A498 renal): > 100 µM
- TGI (A549 NSCLC): > 100 µM
- TGI (ACHN renal): > 100 µM
- TGI (BT-549 breast): > 100 µM
- TGI (CAKI-1 renal): > 100 µM
- TGI (COLO 205 colon): > 100 µM
- TGI (DU-145 prostate): > 100 µM
- TGI (EKVX NSCLC): > 100 µM
- TGI (HCC-2998 colon): > 100 µM
- TGI (HCT-116 colon): > 100 µM
- TGI (HCT-15 colon): > 100 µM
- TGI (HL-60(TB) leukemia): > 100 µM
- TGI (HOP-62 NSCLC): > 100 µM
- TGI (HOP-92 NSCLC): > 100 µM
- TGI (HS 578T breast): > 100 µM
- TGI (HT29 colon): > 100 µM
- TGI (IGROV1 ovarian): > 100 µM
- TGI (K-562 leukemia): > 100 µM
- TGI (KM12 colon): > 100 µM
- TGI (LOX IMVI melanoma): > 100 µM
- TGI (M14 melanoma): > 100 µM
- TGI (MALME-3M melanoma): > 100 µM
- TGI (MCF7 breast): > 100 µM
- TGI (MDA-MB-231 breast): > 100 µM
- TGI (MDA-MB-435): > 100 µM
- TGI (MDA-N): > 100 µM
- TGI (MOLT-4 leukemia): > 100 µM
- TGI (NCI-H226 lung): > 100 µM
- TGI (NCI-H23 lung): > 100 µM
- TGI (NCI-H460 lung): > 100 µM
- TGI (NCI-H522 lung): > 100 µM
- TGI (NCI/ADR-RES ovarian): > 100 µM
- TGI (OVCAR-3 ovarian): > 100 µM
- TGI (OVCAR-4 ovarian): > 100 µM
- TGI (OVCAR-5 ovarian): > 100 µM
- TGI (OVCAR-8 ovarian): > 100 µM
- TGI (PC-3 prostate): > 100 µM
- TGI (RPMI-8226 leukemia): > 100 µM
- TGI (RXF 393 renal): > 100 µM
- TGI (SF-268 CNS): > 100 µM
- TGI (SF-295 CNS): > 100 µM
- TGI (SK-MEL-28 melanoma): > 100 µM
- TGI (SK-MEL-5 melanoma): > 100 µM
- TGI (SK-OV-3 ovarian): > 100 µM
- TGI (SN12C renal): > 100 µM
- TGI (SNB-19 CNS): > 100 µM
- TGI (SNB-75 CNS): > 100 µM
- TGI (SW-620 colon): > 100 µM
- TGI (T-47D breast): > 100 µM
- TGI (TK-10 renal): > 100 µM
- TGI (U251 CNS): > 100 µM
- TGI (UACC-257 melanoma): > 100 µM
- TGI (UACC-62 melanoma): > 100 µM
- TGI (UO-31 renal): > 100 µM

SMILES: O=C1/C(=C\c2cccc(Oc3ccccc3)c2)S(=O)(=O)C(c2ccccc2)N1c1ccc(Cl)cc1 (configuration not stated)
- TGI (786-0 renal): 27 µM
- TGI (A498 renal): > 100 µM
- TGI (A549 NSCLC): > 100 µM
- TGI (ACHN renal): 36.9 µM
- TGI (BT-549 breast): 49.9 µM
- TGI (CAKI-1 renal): 84.2 µM
- TGI (CCRF-CEM leukemia): 79.1 µM
- TGI (COLO 205 colon): 28.2 µM
- TGI (DU-145 prostate): 37.4 µM
- TGI (EKVX NSCLC): 84.5 µM
- TGI (HCC-2998 colon): > 100 µM
- TGI (HCT-116 colon): 26.8 µM
- TGI (HCT-15 colon): 32.8 µM
- TGI (HL-60(TB) leukemia): 32.7 µM
- TGI (HOP-62 NSCLC): > 100 µM
- TGI (HOP-92 NSCLC): 30.8 µM
- TGI (HT29 colon): 28.2 µM
- TGI (IGROV1 ovarian): 33.2 µM
- TGI (K-562 leukemia): 56.9 µM
- TGI (KM12 colon): > 100 µM
- TGI (LOX IMVI melanoma): 27.8 µM
- TGI (M14 melanoma): 26.9 µM
- TGI (MALME-3M melanoma): 33.6 µM
- TGI (MCF7 breast): 62.9 µM
- TGI (MDA-MB-231 breast): 34.7 µM
- TGI (MDA-MB-435): 25.4 µM
- TGI (MDA-N): 29 µM
- TGI (MOLT-4 leukemia): 33.1 µM
- TGI (NCI-H226 lung): > 100 µM
- TGI (NCI-H23 lung): > 100 µM
- TGI (NCI-H460 lung): > 100 µM
- TGI (NCI-H522 lung): 29.5 µM
- TGI (NCI/ADR-RES ovarian): 54.1 µM
- TGI (OVCAR-3 ovarian): 32.7 µM
- TGI (OVCAR-4 ovarian): 52.3 µM
- TGI (OVCAR-5 ovarian): 88.7 µM
- TGI (OVCAR-8 ovarian): 37.3 µM
- TGI (PC-3 prostate): > 100 µM
- TGI (RPMI-8226 leukemia): > 100 µM
- TGI (RXF 393 renal): 29.4 µM
- TGI (SF-295 CNS): 41.2 µM
- TGI (SF-539 CNS): 41.7 µM
- TGI (SK-MEL-2 melanoma): 34.5 µM
- TGI (SK-MEL-28 melanoma): 34 µM
- TGI (SK-MEL-5 melanoma): 30.5 µM
- TGI (SK-OV-3 ovarian): > 100 µM
- TGI (SN12C renal): 29 µM
- TGI (SNB-19 CNS): 55.9 µM
- TGI (SNB-75 CNS): > 100 µM
- TGI (SR leukemia): 40 µM
- TGI (SW-620 colon): 34.4 µM
- TGI (T-47D breast): 29.9 µM
- TGI (TK-10 renal): > 100 µM
- TGI (U251 CNS): 30.5 µM
- TGI (UACC-257 melanoma): 94.3 µM
- TGI (UACC-62 melanoma): 57 µM
- TGI (UO-31 renal): 26.8 µM
